One data set relates to HIV-1NL4-3. Put plainly: Anti-HIV-1 assay in TZM-GFP cells. The settings on record: for Inhibition% at 20 μM: 20 μM compound; for Inhibition% at 2 μM: 2 μM compound; for fold higher antiviral potency than PF74: EC50 compared with PF74.
Data set [1] is described as follows: Microsomal stability assay, mouse liver microsomes. Conditions: without Cobi, 1 μM compound, 0.5 mg/mL microsomal protein, NADPH. On the technique in general: Microsomes from liver hold many membrane-bound enzymes, among them those of drug oxidation.
A short description of data set [2]: Microsomal stability assay, human liver microsomes. The settings on record: without Cobi; for Phase I metabolic stability t1/2, HLM: 1 μM compound, 0.5 mg/mL microsomal protein, NADPH.

On to “2-(2-(2,4-Dioxo-1,3-diazaspiro[4.5]decan-3-yl)acetamido)-N,3-diphenylpropanamide [Compound 45]”, for which the “Inhibition% at 20 μM” value with HIV-1NL4-3 was “−/0%”.

For the molecule “2-(2-(2,4-Dioxo-1,3-diazaspiro[4.5]decan-3-yl)acetamido)-N-(3-fluorophenyl)-N-methyl-3-phenylpropanamide [Compound 49]”, in the data set on HIV-1NL4-3, the “Inhibition% at 2 μM” value is 24% and the “Inhibition% at 20 μM” value is 98%.

Take “2-(2-(2,4-Dioxo-1,3-diazaspiro[4.5]decan-3-yl)acetamido)-N-ethyl-N,3-diphenylpropanamide [Compound 53]”: the “Inhibition% at 20 μM” value in the data set on HIV-1NL4-3 is recorded as “−/92%”.

Regarding “2-(2-(2,4-Dioxo-1,3-diazaspiro[4.5]decan-3-yl)acetamido)-N-methyl-3-phenyl-N-(p-tolyl)propanamide [Compound 47]”, in the data set on HIV-1NL4-3, the “Inhibition% at 20 μM” value was “−/92%”. The “Phase I metabolic stability t1/2, MLM” value in data set [1] was determined as 1.2 min. Besides, the “Phase I metabolic stability t1/2, HLM” value in data set [2] was found to be 3.3 min.

As to “2-(2-(2,4-Dioxo-1,3-diazaspiro[4.5]decan-3-yl)acetamido)-N-methyl-N,3-diphenylpropanamide [Compound 44]”, in the data set on HIV-1NL4-3, the “Inhibition% at 20 μM” value was “−/89%”.

As to “2-(2-(2,5-Dioxo-3’,4’-dihydro-2’H-spiro[imidazolidine-4,1’-naphthalen]-1-yl)acetamido)-N,3-diphenylpropanamide [Compound 55]”, the “Inhibition% at 20 μM” value with HIV-1NL4-3 is given as “−/22%”.

Regarding “2-(2-(2,5-Dioxo-3’,4’-dihydro-2’H-spiro[imidazolidine-4,1’-naphthalen]-1-yl)acetamido)-N-(4-methoxyphenyl)-N-methyl-3-phenylpropanamide [Compound 56]”, the “Inhibition% at 20 μM” value in the data set on HIV-1NL4-3 is “−/20%”.

As to “2-(2-(2,5-Dioxo-3’,4’-dihydro-2’H-spiro[imidazolidine-4,1’-naphthalen]-1-yl)acetamido)-N-methyl-3-phenyl-N-(p-tolyl)propanamide [Compound 57]”, the “Inhibition% at 20 μM” value with HIV-1NL4-3 is “−/41%”.

Turning to “2-(2-(2,5-Dioxo-3’,4’-dihydro-2’H-spiro[imidazolidine-4,1’-naphthalen]-1-yl)acetamido)-N-methyl-N,3-diphenylpropanamide [Compound 54]”, the “Inhibition% at 20 μM” value in the data set with HIV-1NL4-3 is listed as “−/32%”.

Take `COc1ccc(N(C)C(=O)C(Cc2ccccc2)NC(=O)CN2C(=O)NC3(CCCCC3)C2=O)cc1` (stereo not shown) [Compound 46, 2-(2-(2,4-Dioxo-1,3-diazaspiro[4.5]decan-3-yl)acetamido)-N-(4-methoxyphenyl)-N-methyl-3-phenylpropanamide]: the “Inhibition% at 20 μM” value in the data set on HIV-1NL4-3 was “−/93%”. Moreover, the “Phase I metabolic stability t1/2, MLM” value in data set [1] amounted to 0.7 min. Moreover, in data set [2], the “fold improved half-life over PF74 in HLMs” value was in the range of 7 to 10 fold and the “Phase I metabolic stability t1/2, HLM” value came out at 5.2 min.

`CN(C(=O)C(Cc1ccccc1)NC(=O)CN1C(=O)NC2(CCCCC2)C1=O)c1ccc(F)cc1` (stereo not shown) [Compound 48, 2-(2-(2,4-Dioxo-1,3-diazaspiro[4.5]decan-3-yl)acetamido)-N-(4-fluorophenyl)-N-methyl-3-phenylpropanamide]: in the data set with HIV-1NL4-3, the “Inhibition% at 2 μM” value is on record as 9% and the “Inhibition% at 20 μM” value was 99%. The “Phase I metabolic stability t1/2, MLM” value in data set [1] is reported as 0.5 min. In data set [2], the “Phase I metabolic stability t1/2, HLM” value was determined as 1.1 min.

Turning to “(2S)-2-(2-(4,7-Dimethyl-2-oxoindolin-3-yl)acetamido)-N-methyl-N,3-diphenylpropanamide [Compound 20]”, the “Phase I metabolic stability t1/2, MLM” value in data set [1] was determined as 0.6 min. The “Phase I metabolic stability t1/2, HLM” value in data set [2] was 1.5 min.

Take “(2S)-N-(3-Fluorophenyl)-N-methyl-2-(2-(7-methyl-2-oxoindolin-3-yl)acetamido)-3-phenylpropanamide [Compound 19]”: in the data set on HIV-1NL4-3, the “Inhibition% at 2 μM” value is 0% and the “Inhibition% at 20 μM” value was found to be 93%.

On to “(2S)-N-(4-Chlorophenyl)-N-methyl-2-(2-(7-methyl-2-oxoindolin-3-yl)acetamido)-3-phenylpropanamide [Compound 17]”, for which, in the data set on HIV-1NL4-3, the “Inhibition% at 2 μM” value was 17% and the “Inhibition% at 20 μM” value stood at 96%.

For the molecule “(2S)-N-Methyl-2-(2-(7-methyl-2-oxoindolin-3-yl)acetamido)-N,3-diphenylpropanamide [Compound 16]”, in the data set with HIV-1NL4-3, the “Inhibition% at 2 μM” value is 0% and the “Inhibition% at 20 μM” value is given as 91%. Further, the “Phase I metabolic stability t1/2, MLM” value in data set [1] worked out at 1 min. In data set [2], the “fold improved half-life over PF74 in HLMs” value was 7 to 10 fold and the “Phase I metabolic stability t1/2, HLM” value was 7.0 min.

As for “(S)-2-(2-(1,3-Dimethyl-2,6-dioxo-1,2,3,6-tetrahydro-7H-purin-7-yl)acetamido)-N-(3-fluorophenyl)-N-methyl-3-phenylpropanamide [Compound 40]”, in the data set on HIV-1NL4-3, the “Inhibition% at 2 μM” value is reported as 1% and the “Inhibition% at 20 μM” value was found to be 67%.

With “(S)-2-(2-(1,3-Dimethyl-2,6-dioxo-1,2,3,6-tetrahydro-7H-purin-7-yl)acetamido)-N-(4-fluorophenyl)-N-methyl-3-phenylpropanamide [Compound 39]”, in the data set with HIV-1NL4-3, the “Inhibition% at 2 μM” value stood at 14% and the “Inhibition% at 20 μM” value was 85%.

Consider “(S)-2-(2-(1,3-Dimethyl-2,6-dioxo-1,2,3,6-tetrahydro-7H-purin-7-yl)acetamido)-N-ethyl-N,3-diphenylpropanamide [Compound 43]”, for which, in the data set on HIV-1NL4-3, the “Inhibition% at 2 μM” value is recorded as 0% and the “Inhibition% at 20 μM” value turned out to be 94%.

For “(S)-2-(2-(1,3-Dimethyl-2,6-dioxo-1,2,3,6-tetrahydro-7H-purin-7-yl)acetamido)-N-methyl-3-phenyl-N-(p-tolyl)propanamide [Compound 38]”, in the data set on HIV-1NL4-3, the “Inhibition% at 2 μM” value was 18% and the “Inhibition% at 20 μM” value stood at 98%.

Turning to “(S)-2-(2-(5-Hydroxy-1H-indol-3-yl)acetamido)-N-methyl-3-phenyl-N-(p-tolyl)propanamide [Compound 9]”, in the data set on HIV-1NL4-3, the “fold higher antiviral potency than PF74” value is “up to 20 fold”.

On to “(S)-2-(2-(5-Hydroxy-1H-indol-3-yl)acetamido)-N-methyl-N,3-diphenylpropanamide [Compound 8]”, for which, in the data set on HIV-1NL4-3, the “fold higher antiviral potency than PF74” value is on record as “up to 20 fold”.

As to “(S)-2-(2-(5-Methoxy-1H-indol-3-yl)acetamido)-N-methyl-N,3-diphenylpropanamide [Compound 3]”, the “Phase I metabolic stability t1/2, MLM” value in data set [1] is 0.5 min. Besides, in data set [2], the “Phase I metabolic stability t1/2, HLM” value stood at 1.2 min.

Consider “(S)-N-(3-Chlorophenyl)-2-(2-(1,3-dimethyl-2,6-dioxo-1,2,3,6-tetrahydro-7H-purin-7-yl)acetamido)-N-methyl-3-phenylpropanamide [Compound 42]”, for which, in the data set on HIV-1NL4-3, the “Inhibition% at 2 μM” value is 0% and the “Inhibition% at 20 μM” value amounted to 71%.

“(S)-N-(3-Chlorophenyl)-2-(2-(5-hydroxy-1H-indol-3-yl)acetamido)-N-methyl-3-phenylpropanamide [Compound 13]”: the “fold potency drop on moving the Cl from 4 position to 3” value in the data set with HIV-1NL4-3 (compared with 4-Cl analog 12) is reported as 10 fold.

On to “(S)-N-(3-Chlorophenyl)-N-methyl-2-(2-(naphthalen-1-yl)acetamido)-3-phenylpropanamide [Compound 34]”, for which, in the data set with HIV-1NL4-3, the “Inhibition% at 2 μM” value amounted to 53% and the “Inhibition% at 20 μM” value amounted to 96%.

On to “(S)-N-(3-Chlorophenyl)-N-methyl-2-(2-(naphthalen-2-yl)acetamido)-3-phenylpropanamide [Compound 28]”, for which, in the data set with HIV-1NL4-3, the “Inhibition% at 2 μM” value worked out at 0% and the “Inhibition% at 20 μM” value stood at 94%.

As for “(S)-N-(3-Fluorophenyl)-N-methyl-2-(2-(naphthalen-1-yl)acetamido)-3-phenylpropanamide [Compound 35]”, in the data set on HIV-1NL4-3, the “Inhibition% at 2 μM” value was 44% and the “Inhibition% at 20 μM” value stood at 97%.

As to “(S)-N-(3-Fluorophenyl)-N-methyl-2-(2-(naphthalen-2-yl)acetamido)-3-phenylpropanamide [Compound 29]”, in the data set with HIV-1NL4-3, the “Inhibition% at 2 μM” value is reported as 0% and the “Inhibition% at 20 μM” value was 97%.

Take “(S)-N-(4-Chlorophenyl)-2-(2-(1,3-dimethyl-2,6-dioxo-1,2,3,6-tetrahydro-7H-purin-7-yl)acetamido)-N-methyl-3-phenylpropanamide [Compound 41]”: in the data set on HIV-1NL4-3, the “Inhibition% at 2 μM” value was determined as 6% and the “Inhibition% at 20 μM” value is listed as 96%.

As for “(S)-N-(4-Chlorophenyl)-2-(2-(5-hydroxy-1H-indol-3-yl)acetamido)-N-methyl-3-phenylpropanamide [Compound 12]”, in the data set on HIV-1NL4-3, the “fold higher antiviral potency than PF74” value is listed as “up to 20 fold”.

In the case of “(S)-N-(4-Chlorophenyl)-2-(2-(5-methoxy-1H-indol-3-yl)acetamido)-N-methyl-3-phenylpropanamide [Compound 7]”, the “Phase I metabolic stability t1/2, MLM” value in data set [1] amounted to 0.6 min. For the same molecule, in data set [2], the “Phase I metabolic stability t1/2, HLM” value came out at 1.8 min.

Regarding “(S)-N-Ethyl-2-(2-(naphthalen-1-yl)acetamido)-N,3-diphenylpropanamide [Compound 36]”, in the data set on HIV-1NL4-3, the “Inhibition% at 2 μM” value was 53% and the “Inhibition% at 20 μM” value was found to be 98%.

For the molecule “(S)-N-Ethyl-2-(2-(naphthalen-2-yl)acetamido)-N,3-diphenylpropanamide [Compound 30]”, in the data set on HIV-1NL4-3, the “Inhibition% at 2 μM” value worked out at 46% and the “Inhibition% at 20 μM” value came to 97%.

Turning to “(S)-N-Methyl-2-(2-(naphthalen-1-yl)acetamido)-3-phenyl-N-(p-tolyl)propanamide [Compound 32]”, in the data set with HIV-1NL4-3, the “Inhibition% at 2 μM” value is on record as 96% and the “Inhibition% at 20 μM” value is 100%.

“(S)-N-Methyl-2-(2-(naphthalen-2-yl)acetamido)-3-phenyl-N-(p-tolyl)propanamide [Compound 26]”: in the data set with HIV-1NL4-3, the “Inhibition% at 2 μM” value is given as 80% and the “Inhibition% at 20 μM” value is on record as 99%.

Turning to “N-(3-Bromophenyl)-2-(2-(2,4-dioxo-1,3-diazaspiro[4.5]decan-3-yl)acetamido)-N-methyl-3-phenylpropanamide [Compound 52]”, the “Inhibition% at 20 μM” value in the data set with HIV-1NL4-3 is given as “−/36%”.

For “N-(3-Chlorophenyl)-2-(2-(2,4-dioxo-1,3-diazaspiro[4.5]decan-3-yl)acetamido)-N-methyl-3-phenylpropanamide [Compound 51]”, in the data set on HIV-1NL4-3, the “Inhibition% at 2 μM” value came to 9% and the “Inhibition% at 20 μM” value was found to be 98%.

(Values after article PMC7530112 (European journal of medicinal chemistry, 2020).)
